Source: US20210380683A1, “MODULATION OF IRF-4 AND USES THEREOF” (THE METHODIST HOSPITAL SYSTEM, priority 2018, published 2021)

Tested on: Balb/c heart allograft in WT B6 mice
Assay: Balb/c heart allograft survival in WT B6 recipients
Format: in vivo, mouse
Conditions: 3 mg/kg every other day from day 0 to day 12; WT B6 recipients of Balb/c hearts
Protocol: Murine heterotopic heart transplantation. Heart transplantation in mice was performed by a previously described method (Miyahara et al., 2012; Chen et al., 2007). In brief, hearts from Balb/c donors were transplanted into 8 to 10-week-old male WT B6, Irf4^fl/flCd4-Cre, CD45.1+ congenic, or Rag1−/− recipient mice. Pulmonary artery and aorta of donor heart were cut open, remaining heart vessels were tied off, and heart was removed. […] Anastomosis was made by 11-0 sutures running continuously. 6-0 silk thread was removed, and abdomen was then closed by 5-0 sutures in two layers. Heart graft survival was monitored daily by palpation, and the day of complete cessation of heartbeat was considered as the day of rejection. Recipient mice were i.p. injected with Rat IgG, anti-PD-L1 (10F.9G2), anti-CTLA-4 (9D9), anti-CD4 (GK1.5), anti-CD8 (53-6.7), or anti-CD25 (PC-61.5.3) mAbs obtained from Bio-X-Cell (West Lebanon, N.H.), oral gavaged with trametinib (Selleck Chemicals, Houston, Tex.) or corn oil, or i.v. transferred with WT B6, Irf4^−/−, TEa, TEa Irf4^−/−, or IRF4 re-introduced Irf4^−/− T cells. At various days post-transplant, splenocytes and graft infiltrating cells were obtained for flow cytometry analysis, and allografts were sectioned and stained with hematoxylin and eosin for microscopic evaluation.

CC(=O)Nc1cccc(-n2c(=O)n(C3CC3)c(=O)c3c(Nc4ccc(I)cc4F)n(C)c(=O)c(C)c32)c1 [trametinib]
heart allograft survival (MST): 13.17±0.75 days
